Test results: patent US20020137929A1, “1 - (3-heterocyclylphenyl) isothiourea, -isourea, -guanidine and -amidine herbicidal agents” (Intellectual Property Department, BASF Aktiengesellschaft, priority 1998, published 2002)

How the values were obtained:
AMBEL (Ragweed, Common) = experiment: Postemergence herbicidal evaluation; format: in vivo, Ambrosia artemisifolia; conditions: postemergence
How it was run: (§1)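 Visual 0-9 injury score (stand, vigor, malformation, size, chlorosis, appearance vs untreated) taken four to five weeks post-spray, averaged across repeat tests. Test plants about two weeks old; foliar spray of acetone/water (1:1) with 0.5% surfactant delivering ~0.0156-0.500 kg active/ha.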

CASOB (Sicklepod) [1] = experiment: Postemergence herbicidal evaluation; format: in vivo, Cassia obtusifolia; conditions: postemergence
How it was run: as §1

GALAP (Galium) = experiment: Postemergence herbicidal evaluation; format: in vivo, Galium aparine; conditions: postemergence
How it was run: as §1

[2] = system: IPOHE (Morningglory, Ivyleaf); experiment: Postemergence herbicidal evaluation; format: in vivo, Ipomoea hederacea; conditions: postemergence
How it was run: as §1

ABUTH (Velvetleaf) = experiment: Preemergence herbicidal evaluation; format: in vivo, Abutilon theophrasti; conditions: rated 4-5 weeks after treatment
How it was run: (§2)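 Scores (0–9) reflect visual comparison with control plants for stand, vigor, malformation, size and chlorosis. Compound was applied to the soil after sowing, before emergence, as an aqueous acetone spray (about 0.0156–0.500 kg/ha), and cups were kept in a greenhouse for 4–5 weeks.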

CASOB (Sicklepod) [3] = experiment: Preemergence herbicidal evaluation; format: in vivo, Cassia obtusifolia; conditions: rated 4-5 weeks after treatment
How it was run: as §2

[4] = system: IPOHE (Morningglory, Ivyleaf); experiment: Preemergence herbicidal evaluation; format: in vivo, Ipomoea hederacea; conditions: rated 4-5 weeks after treatment
How it was run: as §2

ECHCG (Barnyardgrass) = experiment: Preemergence herbicidal evaluation; format: in vivo, Echinochloa crus-galli; conditions: rated 4-5 weeks after treatment
How it was run: as §2

[5] = system: GLXMAW (Soybean, Williams); experiment: Preemergence herbicidal evaluation; format: in vivo, Glycine max, (L.) Merr. cv Williams; conditions: rated 4-5 weeks after treatment
How it was run: as §2

[6] = system: TRZAWR (Wheat, Winter, cv Riband); experiment: Preemergence herbicidal evaluation; format: in vivo, Triticum aestivum; conditions: rated 4-5 weeks after treatment
How it was run: as §2

ZEAMX (Corn, Field) = experiment: Preemergence herbicidal evaluation; format: in vivo, Zea mays; conditions: rated 4-5 weeks after treatment
How it was run: as §2

MOOVA (Monochoria) = experiment: Preemergence weed control under flooded paddy conditions; format: in vivo, Monochoria vaginalis; conditions: rated 3-4 weeks after treatment
How it was run: (§3)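 Seeds or propagules sown in top 0.5 cm of silt loam soil, flooded 1.5 to 3 cm above surface throughout. Compound in 50/50 v/v aqueous/acetone pipetted into flood water at about 0.0313 to 0.500 kg/ha. Visual 0-9 rating versus control after three to four weeks in greenhouse.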

[7] = system: SAGPY (Arrowhead (Pygmaea)); experiment: as above; format: in vivo, Sagittaria pygmaea; conditions: rated 3-4 weeks after treatment
How it was run: as §3

[8] = rate 0.0156 kg/ha, rating scale 0-9
[9] = rate 0.0313 kg/ha, rating scale 0-9
[10] = rate 0.0625 kg/ha, rating scale 0-9
[11] = rate 0.1250 kg/ha, rating scale 0-9
[12] = rate 0.2500 kg/ha, rating scale 0-9

Cn1c(C(F)(F)F)cc(=O)n(-c2cc(N=C3SCC(=O)N3Cc3ccc(Cl)c(Cl)c3)c(Cl)cc2F)c1=O [Compound 144, 3-{4-Chloro-5-{[3-(3,4-dichlorobenzyl)-4-oxo-2-thiazolidinylidene]amino}-2-fluorophenyl}-1-methyl-6-(trifluoromethyl)-2,4(1H,3H)-pyrimidinedione]
9.0: Herbicidal rating AMBEL (AMBEL (Ragweed, Common); rate 0.0313 kg/ha) | Herbicidal rating AMBEL (AMBEL (Ragweed, Common); rate 0.0625 kg/ha) | Herbicidal rating IPOHE ([2]; rate 0.0156 kg/ha) | Herbicidal rating IPOHE ([2]; rate 0.0313 kg/ha) | Herbicidal rating IPOHE ([2]; rate 0.0625 kg/ha) | Preemergence herbicidal rating ABUTH (ABUTH (Velvetleaf); [11]) | Preemergence herbicidal rating ABUTH (ABUTH (Velvetleaf); [12]) | herbicidal effect rating, MOOVA (MOOVA (Monochoria); 0.0625 kg/ha) | herbicidal effect rating, MOOVA (MOOVA (Monochoria); 0.1250 kg/ha) | herbicidal effect rating, MOOVA (MOOVA (Monochoria); 0.2500 kg/ha)
6.0: herbicidal effect rating, MOOVA (MOOVA (Monochoria); 0.0313 kg/ha)
3.0: Herbicidal rating CASOB (CASOB (Sicklepod) [1]; rate 0.0156 kg/ha) | Herbicidal rating GALAP (GALAP (Galium); rate 0.0156 kg/ha) | Herbicidal rating GALAP (GALAP (Galium); rate 0.0313 kg/ha)
4.0: Herbicidal rating GALAP (GALAP (Galium); rate 0.0625 kg/ha) | herbicidal effect rating, SAGPY ([7]; 0.2500 kg/ha)
5.0: Herbicidal rating CASOB (CASOB (Sicklepod) [1]; rate 0.0313 kg/ha)
2.0: Preemergence herbicidal rating CASOB (CASOB (Sicklepod) [3]; [12]) | herbicidal effect rating, SAGPY ([7]; 0.1250 kg/ha)
7.0: Herbicidal rating AMBEL (AMBEL (Ragweed, Common); rate 0.0156 kg/ha) | Herbicidal rating CASOB (CASOB (Sicklepod) [1]; rate 0.0625 kg/ha)
1.0: Preemergence herbicidal rating CASOB (CASOB (Sicklepod) [3]; [11]) | Preemergence herbicidal rating IPOHE [4, 12] | Preemergence herbicidal rating ECHCG (ECHCG (Barnyardgrass); [12])
0.0: Preemergence herbicidal rating ABUTH (ABUTH (Velvetleaf); [8]) | Preemergence herbicidal rating ABUTH (ABUTH (Velvetleaf); [9]) | Preemergence herbicidal rating ABUTH (ABUTH (Velvetleaf); [10]) | Preemergence herbicidal rating CASOB (CASOB (Sicklepod) [3]; [8]) | Preemergence herbicidal rating CASOB (CASOB (Sicklepod) [3]; [9]) | Preemergence herbicidal rating CASOB (CASOB (Sicklepod) [3]; [10]) | Preemergence herbicidal rating IPOHE [4, 8] | Preemergence herbicidal rating IPOHE [4, 9] | Preemergence herbicidal rating IPOHE [4, 10] | Preemergence herbicidal rating IPOHE [4, 11] | Preemergence herbicidal rating ECHCG (ECHCG (Barnyardgrass); [8]) | Preemergence herbicidal rating ECHCG (ECHCG (Barnyardgrass); [9]) | Preemergence herbicidal rating ECHCG (ECHCG (Barnyardgrass); [10]) | Preemergence herbicidal rating ECHCG (ECHCG (Barnyardgrass); [11]) | Preemergence herbicidal rating GLXMAW [5, 8] | Preemergence herbicidal rating GLXMAW [5, 9] | Preemergence herbicidal rating GLXMAW [5, 10] | Preemergence herbicidal rating GLXMAW [5, 11] | Preemergence herbicidal rating GLXMAW [5, 12] | Preemergence herbicidal rating TRZAWR [6, 8] | Preemergence herbicidal rating TRZAWR [6, 9] | Preemergence herbicidal rating TRZAWR [6, 10] | Preemergence herbicidal rating TRZAWR [6, 11] | Preemergence herbicidal rating TRZAWR [6, 12] | Preemergence herbicidal rating ZEAMX (ZEAMX (Corn, Field); [8]) | Preemergence herbicidal rating ZEAMX (ZEAMX (Corn, Field); [9]) | Preemergence herbicidal rating ZEAMX (ZEAMX (Corn, Field); [10]) | Preemergence herbicidal rating ZEAMX (ZEAMX (Corn, Field); [11]) | Preemergence herbicidal rating ZEAMX (ZEAMX (Corn, Field); [12]) | herbicidal effect rating, SAGPY ([7]; 0.0313 kg/ha) | herbicidal effect rating, SAGPY ([7]; 0.0625 kg/ha)

COC(=O)COC(=O)CN1C(=O)CSC1=Nc1cc(-n2c(=O)cc(C(F)(F)F)n(C)c2=O)c(F)cc1Cl [Compound 108, 2-{{2-Chloro-5-[3,6-dihydro-3-methyl-2,6-dioxo-4-(trifluoromethyl)-1(2H)-pyrimidinyl]-4-fluorophenyl}imino}-4-oxo-3-thiazolidineacetic acid, ester with methyl glycolate]
5.0: Herbicidal rating AMBEL (AMBEL (Ragweed, Common); rate 0.0315 kg/ha) | Herbicidal rating AMBEL (AMBEL (Ragweed, Common); rate 0.0630 kg/ha) | Preemergence herbicidal rating TRZAWR ([6]; rate 0.2500 kg/ha)
0.0: Preemergence herbicidal rating ABUTH (ABUTH (Velvetleaf); rate 0.0156 kg/ha) | Preemergence herbicidal rating ABUTH (ABUTH (Velvetleaf); rate 0.0313 kg/ha) | Preemergence herbicidal rating CASOB (CASOB (Sicklepod) [3]; rate 0.0156 kg/ha) | Preemergence herbicidal rating CASOB (CASOB (Sicklepod) [3]; rate 0.0313 kg/ha) | Preemergence herbicidal rating CASOB (CASOB (Sicklepod) [3]; rate 0.0625 kg/ha) | Preemergence herbicidal rating CASOB (CASOB (Sicklepod) [3]; rate 0.1250 kg/ha) | Preemergence herbicidal rating IPOHE ([4]; rate 0.0156 kg/ha) | Preemergence herbicidal rating IPOHE ([4]; rate 0.0313 kg/ha) | Preemergence herbicidal rating IPOHE ([4]; rate 0.0625 kg/ha) | Preemergence herbicidal rating ECHCG (ECHCG (Barnyardgrass); rate 0.0156 kg/ha) | Preemergence herbicidal rating ECHCG (ECHCG (Barnyardgrass); rate 0.0313 kg/ha) | Preemergence herbicidal rating ECHCG (ECHCG (Barnyardgrass); rate 0.0625 kg/ha) | Preemergence herbicidal rating ECHCG (ECHCG (Barnyardgrass); rate 0.1250 kg/ha) | Preemergence herbicidal rating GLXMAW ([5]; rate 0.0156 kg/ha) | Preemergence herbicidal rating TRZAWR ([6]; rate 0.0156 kg/ha) | Preemergence herbicidal rating TRZAWR ([6]; rate 0.0313 kg/ha) | Preemergence herbicidal rating TRZAWR ([6]; rate 0.0625 kg/ha) | Preemergence herbicidal rating ZEAMX (ZEAMX (Corn, Field); rate 0.0156 kg/ha) | Preemergence herbicidal rating ZEAMX (ZEAMX (Corn, Field); rate 0.0313 kg/ha) | Preemergence herbicidal rating ZEAMX (ZEAMX (Corn, Field); rate 0.0625 kg/ha) | SAGPY herbicidal effect rating ([7]; 0.0313 kg/ha) | SAGPY herbicidal effect rating ([7]; 0.0625 kg/ha)
9.0: Herbicidal rating IPOHE ([2]; rate 0.0158 kg/ha) | Herbicidal rating IPOHE ([2]; rate 0.0315 kg/ha) | Herbicidal rating IPOHE ([2]; rate 0.0630 kg/ha) | Preemergence herbicidal rating ABUTH (ABUTH (Velvetleaf); rate 0.2500 kg/ha) | Preemergence herbicidal rating CASOB (CASOB (Sicklepod) [3]; rate 0.2500 kg/ha) | Preemergence herbicidal rating IPOHE ([4]; rate 0.2500 kg/ha) | MOOVA herbicidal effect rating (MOOVA (Monochoria); 0.0313 kg/ha) | MOOVA herbicidal effect rating (MOOVA (Monochoria); 0.0625 kg/ha) | MOOVA herbicidal effect rating (MOOVA (Monochoria); 0.1250 kg/ha) | MOOVA herbicidal effect rating (MOOVA (Monochoria); 0.2500 kg/ha)
8.0: Preemergence herbicidal rating ABUTH (ABUTH (Velvetleaf); rate 0.1250 kg/ha)
6.0: SAGPY herbicidal effect rating ([7]; 0.2500 kg/ha)
1.0: Herbicidal rating CASOB (CASOB (Sicklepod) [1]; rate 0.0158 kg/ha) | Herbicidal rating CASOB (CASOB (Sicklepod) [1]; rate 0.0315 kg/ha) | Herbicidal rating CASOB (CASOB (Sicklepod) [1]; rate 0.0630 kg/ha) | Herbicidal rating GALAP (GALAP (Galium); rate 0.0158 kg/ha) | Herbicidal rating GALAP (GALAP (Galium); rate 0.0315 kg/ha) | Preemergence herbicidal rating ECHCG (ECHCG (Barnyardgrass); rate 0.2500 kg/ha) | Preemergence herbicidal rating ZEAMX (ZEAMX (Corn, Field); rate 0.1250 kg/ha)
2.0: Preemergence herbicidal rating GLXMAW ([5]; rate 0.0625 kg/ha) | Preemergence herbicidal rating GLXMAW ([5]; rate 0.1250 kg/ha) | Preemergence herbicidal rating GLXMAW ([5]; rate 0.2500 kg/ha) | Preemergence herbicidal rating TRZAWR ([6]; rate 0.1250 kg/ha) | Preemergence herbicidal rating ZEAMX (ZEAMX (Corn, Field); rate 0.2500 kg/ha)
4.0: Herbicidal rating AMBEL (AMBEL (Ragweed, Common); rate 0.0158 kg/ha) | Preemergence herbicidal rating ABUTH (ABUTH (Velvetleaf); rate 0.0625 kg/ha) | Preemergence herbicidal rating IPOHE ([4]; rate 0.1250 kg/ha)
3.0: Herbicidal rating GALAP (GALAP (Galium); rate 0.0630 kg/ha) | SAGPY herbicidal effect rating ([7]; 0.1250 kg/ha)
